Literature values, collected in US9527913B2, “Humanized pan-HER antibody compositions” (Symphogen A/S, priority 2012, dated 2016).
Like-named read-outs stand apart in the source and are kept apart here.

Test system: patient-derived xenograft models of pancreatic cancer
Conditions: cited from earlier work

C#Cc1cccc(Nc2ncnc3cc(OCCOC)c(OCCOC)cc23)c1 [Erlotinib]
Erlotinib resistant (model ST191): Yes
Erlotinib resistant (model ST334): Yes
Erlotinib resistant (model ST383): Yes
Erlotinib resistant (model ST385): Yes
Erlotinib resistant (model STS021): No
Erlotinib resistant (model STS058): Yes
Erlotinib resistant (model STS059): Yes
